# Active and inactive are the calls of the source. The rule behind the calls is not given here.
# Columns and labels:
# [1] = molecular target: GABA-A receptor; anion channel; assay: In vitro affinity at the Benzodiazepine receptor (BzR) is its ability to displace [3H]diazepam from BzR.; type: protein-complex assay, Rattus norvegicus
# Mus musculus [2] = assay: In vivo dose required to induce convulsions in 50% of the mice previously treated by a subconvulsant dose of pentylenetetrazole (40 mg/kg)
# [3] = Solubility in water.; type: physicochemical; conditions: read-out: S
# Mus musculus [4] = assay: Dose required to induce convulsions in 50% of the mice.(In vivo convulsant activity.)
# Mus musculus [5] = assay: Dose required to induce convulsions in 50% of the mice that had been previously treated by a subconvulsant dose of pentylenetetrazole (40 mg/kg)
# Monkey [6] = assay: Anxiogenic activity in vivo in Rhesus monkeys; Potent activity; type: functional, organism-based; conditions: Cercopithecidae
# Rattus norvegicus [7] = assay: In vivo proconvulsant activity in rats; type: functional
# Rattus norvegicus [8] = species on record: Rattus norvegicus; assay: Dose required to induce convulsions in 50% of the rats; type: functional
# Monkey [9] = assay: Anxiogenic activity in vivo in Rhesus monkeys; type: functional; conditions: Cercopithecidae, in Macaca mulatta
# Mus musculus [10] = assay: Dose required to induce convulsions in 50% of the mice.(In vivo proconvulsant activity.)
SMILES,IC50 [1] [nM],solubility [3] [µg/mL],further results
Cl.c1ccc2c(c1)[nH]c1c[nH]c3c4cccnc4nc-3c12,10.6,7600,ED50 (Mus musculus [2]): 11 mg/kg
CCc1c(C(=O)OC)[nH]cc2nc3cc(OC)c(OC)cc3c1-2.Cl,1,< 200,ED50 (Mus musculus [4]): 4 mg/kg
c1ccc2c(c1)ccc1c3[nH]cc4nc5ccccc5c-4c3[nH]c21,> 125,–,–
CCOc1cc2c3ccccc3nc-2c[nH]1.Cl,24,12000,ED50 (Mus musculus [5]): 7 mg/kg; ED50 (Monkey [6]): Active; ED50 (Rattus norvegicus [7]): 7 mg/kg
CCOC(=O)c1cc2c(cn1)[nH]c1ccccc12,–,< 200,ED50 (Rattus norvegicus [8]): 3.2 mg/kg; ED50 (Rattus norvegicus [7]): 75 mg/kg; ED50 (Monkey [9]): 2.5 mg/kg
Cl.c1cnc2c3[nH]cc4[nH]c5ccccc5c4c-3nc2c1,10.2,11000,–
c1ccc2c(c1)ccc1nc3c4c5ccccc5nc-4c[nH]c3n12,> 3000,–,–
c1ccc2c(c1)ccn1c2nc2c3c4ccccc4nc-3c[nH]c21,> 2000,–,–
CCOC(=O)c1cc2c3ccccc3nc-2c[nH]1.Cl,–,1000,–
c1ccc2c(c1)ccc1[nH]c3c4c5ccccc5nc-4c[nH]c3c12,> 125,–,–
c1ccc2c3c4ncc5[nH]c6ccccc6c5c4nc-3c[nH]c2c1,> 1000,–,–
c1ccc2c(c1)[nH]c1cnc3c(nc4ccccn43)c12,39,–,–
c1ccc2c(c1)cnn1c2nc2c3c4ccccc4nc-3c[nH]c21,200,–,–
Cl.c1ccc2c(c1)[nH]c1c[nH]c3c4ccncc4nc-3c12,51.5,13000,ED50 (Mus musculus [2]): 25 mg/kg
Cl.c1ccc2c(c1)[nH]c1c2ncc2[nH]c3ccccc3c21,–,< 2000,ED50 (Mus musculus [10]): 15.5 mg/kg

# Source: ChEMBL document CHEMBL1125343, “Molecular yardsticks. Rigid probes to define the spatial dimensions of the benzodiazepine receptor binding site” (J Med Chem, 1992)
